This passage reports GI50 and TGI results from PubChem BioAssay (NCI).

“And” between values parts separate entries of the source, which are not always exact repeats. Equal entries are not always repeated.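 Where inhibition never reached the appropriate level, the endpoint shown equals the highest concentration tested. Otherwise, values were interpolated linearly from a five-concentration, 48-hour dose response in 96-well plates. GI50 is the concentration that inhibits growth by half. Definition used: TGI = concentration required for complete inhibition of growth.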

Some test systems named below: A498 renal; CAKI-1 renal; CCRF-CEM leukemia; COLO 205 colon; DU-145 prostate; HOP-62 NSCLC; OVCAR-8 ovarian; RPMI-8226 leukemia; RXF 393 renal; SR leukemia.
Holding throughout (assay): NCI tumour cell line growth inhibition, 48 h

Consider `O=C(Nc1ncc(Cc2ccccc2)s1)c1ccc2c(c1)OCCO2`, for which the GI50 with A498 renal was 0.0123 µM; with CAKI-1 renal it was 0.0406 µM; in the test on CCRF-CEM leukemia, 0.0484 µM; in the test on COLO 205 colon, 0.0354 µM; in the test on DU-145 prostate it was 0.0395 µM; in the test with HOP-62 NSCLC, 0.078 µM. The GI50 in the test on OVCAR-8 ovarian is 0.0591 µM; in the test on RPMI-8226 leukemia it was 0.0587 µM; with RXF 393 renal it was 0.0231 µM; in the test on SR leukemia, 0.0487 µM. The TGI was 0.0687 µM in the test with A498 renal; greater than 39 µM in the test with CAKI-1 renal; greater than 100 µM in the test with CCRF-CEM leukemia; 1.08 µM in the test on COLO 205 colon; greater than 100 µM with DU-145 prostate; greater than 100 µM with HOP-62 NSCLC. Besides, the TGI with OVCAR-8 ovarian was greater than 100 µM; in the test with RPMI-8226 leukemia it was greater than 100 µM; in the test on RXF 393 renal, 0.0715 µM; in the test on SR leukemia, greater than 100 µM.

With `NC(=O)c1nnn(Cc2cc(Cl)c(C(=O)c3ccc(Cl)cc3)c(Cl)c2)c1N`, the GI50 in the test with A498 renal was greater than 9.09 µM; in the test with CCRF-CEM leukemia, 7.76 µM; in the test with COLO 205 colon it was greater than 9.09 µM; in the test on HOP-62 NSCLC, greater than 9.09 µM; in the test on OVCAR-8 ovarian it was greater than 9.09 µM; in the test with RPMI-8226 leukemia, greater than 9.09 µM. The results for the GI50 in the test with RXF 393 renal and with SR leukemia were greater than 9.09 µM and 21.7 µM, respectively. For the same compound, the TGI with A498 renal is > 9.09 µM and 27.2 µM; in the test on CAKI-1 renal it was 25.5 µM; in the test on CCRF-CEM leukemia, greater than 100 µM; in the test on COLO 205 colon, > 9.09 µM and 48 µM; in the test with DU-145 prostate, greater than 53.5 µM; with HOP-62 NSCLC, > 9.09 µM and 41.1 µM. Further, the TGI with OVCAR-8 ovarian was > 9.09 µM and 40.8 µM; in the test with RPMI-8226 leukemia it was greater than 70.6 µM; in the test with RXF 393 renal it was > 9.09 µM and 39.3 µM; in the test with SR leukemia, greater than 100 µM.

With `CC1(C)CC(=O)C(C(c2cccc(O)c2O)C2C(=O)CC(C)(C)CC2=O)C(=O)C1`, the TGI in the test on A498 renal, in the test with CAKI-1 renal, in the test with CCRF-CEM leukemia, in the test on COLO 205 colon, in the test with DU-145 prostate and in the test on HOP-62 NSCLC was greater than 100 µM each time. For the same compound, the TGI in the test with OVCAR-8 ovarian, in the test on RPMI-8226 leukemia, in the test on RXF 393 renal and with SR leukemia was greater than 100 µM throughout.

Regarding `O=C(O)CNC(=O)c1ccccc1O`, the TGI with A498 renal, in the test with CAKI-1 renal, in the test on CCRF-CEM leukemia, with COLO 205 colon, in the test on DU-145 prostate and with HOP-62 NSCLC was greater than 100 µM each time. The TGI with OVCAR-8 ovarian, with RPMI-8226 leukemia, in the test with RXF 393 renal and in the test on SR leukemia was greater than 100 µM each time.

As for `COc1ccccc1CNCCCN1C(=O)c2ccc3c4c(ccc(c24)C1=O)C(=O)N(CCCNCCCCNCCCCN)C3=O`, the GI50 in the test with A498 renal is 0.472 µM; in the test with CAKI-1 renal, 3.98 µM; in the test with CCRF-CEM leukemia, 0.756 µM; in the test on COLO 205 colon, 0.351 µM; with DU-145 prostate, 1.62 µM; in the test on HOP-62 NSCLC it was 1.78 µM. Also, the GI50 in the test with OVCAR-8 ovarian is 0.59 µM; in the test with RPMI-8226 leukemia, 1.83 µM; with RXF 393 renal, 2.09 µM; in the test on SR leukemia, 1.5 µM. In addition, the TGI is 4.51 µM with A498 renal; 46 µM with CAKI-1 renal; greater than 33.4 µM in the test with CCRF-CEM leukemia; 1.31 µM in the test on COLO 205 colon; 3.95 µM with DU-145 prostate; 7.64 µM with HOP-62 NSCLC. The TGI in the test on OVCAR-8 ovarian is 6.59 µM; with RPMI-8226 leukemia it was 9.62 µM; in the test with RXF 393 renal it was 10.1 µM; in the test on SR leukemia, 17.7 µM.

Take `Cn1cc(C2=C(c3c4n(c5ccccc35)CC(CN)C4)C(=O)NC2=O)c2ccccc21` (stereo not drawn): the GI50 with A498 renal is 2.96 µM; in the test with CAKI-1 renal, 3.37 µM; with CCRF-CEM leukemia, 4.82 µM; in the test with COLO 205 colon it was 2.59 µM; in the test on DU-145 prostate it was 4.02 µM; in the test with HOP-62 NSCLC, 4.56 µM. In addition, the GI50 with OVCAR-8 ovarian was 3.92 µM; in the test with RPMI-8226 leukemia it was 4.57 µM; in the test with RXF 393 renal it was 2.87 µM; in the test on SR leukemia, 1.74 µM. Moreover, the TGI in the test on A498 renal was 6.4 µM; in the test on CAKI-1 renal it was 9.51 µM; in the test on CCRF-CEM leukemia, 25 µM; in the test with COLO 205 colon it was 6.05 µM; in the test on DU-145 prostate, 9.53 µM; in the test with HOP-62 NSCLC, 11 µM. In addition, the TGI in the test with OVCAR-8 ovarian is 8.93 µM; in the test with RPMI-8226 leukemia it was 11.1 µM; in the test on RXF 393 renal, 6.19 µM; in the test on SR leukemia, 13.8 µM.

Consider `O=C(CCc1nnc(-c2c(Cl)cccc2Cl)o1)c1nc2ccccc2[nH]1`, for which the GI50 was 1.53 µM in the test with A498 renal; 3.49 µM with CAKI-1 renal; 4.86 µM in the test with CCRF-CEM leukemia; 2.66 µM in the test on COLO 205 colon; 17.8 µM with DU-145 prostate; 7.67 µM in the test with HOP-62 NSCLC. The GI50 in the test with OVCAR-8 ovarian is 9.26 µM; in the test on RPMI-8226 leukemia, 3.61 µM; in the test with RXF 393 renal, 4.3 µM; with SR leukemia, 2.63 µM. In addition, the TGI was 10.1 µM in the test with A498 renal; 41.1 µM in the test with CAKI-1 renal; 66 µM in the test with CCRF-CEM leukemia; 7.08 µM in the test on COLO 205 colon; greater than 100 µM with DU-145 prostate; 41.3 µM with HOP-62 NSCLC. For the same compound, the TGI in the test on OVCAR-8 ovarian is greater than 100 µM; in the test with RPMI-8226 leukemia it was 23.3 µM; in the test on RXF 393 renal, 49.7 µM; with SR leukemia, 15.2 µM.

With `CCCN(CCC)c1ccc(C=O)cc1`, the GI50 was 1.81 µM in the test with A498 renal; 53.2 µM in the test on CAKI-1 renal; 30.2 µM in the test with CCRF-CEM leukemia; greater than 77.6 µM in the test with COLO 205 colon; 46.7 µM in the test on DU-145 prostate; greater than 88 µM with HOP-62 NSCLC. Moreover, the GI50 in the test with OVCAR-8 ovarian is 61.9 µM; with RPMI-8226 leukemia it was 54.5 µM; with RXF 393 renal, 72.2 µM; in the test on SR leukemia, 33.7 µM. In addition, the TGI with A498 renal is 4.15 µM; in the test on CAKI-1 renal it was greater than 100 µM; in the test on CCRF-CEM leukemia, greater than 100 µM; with COLO 205 colon it was greater than 100 µM; in the test with DU-145 prostate, greater than 100 µM; in the test on HOP-62 NSCLC it was greater than 100 µM. The TGI in the test on OVCAR-8 ovarian, with RPMI-8226 leukemia, in the test on RXF 393 renal and with SR leukemia was greater than 100 µM in each case.
